Test results from patent US20170281651A1, “CONCOMITANT ADMINISTRATION OF GLUCOCORTICOID RECEPTOR MODULATORS AND CYP3A OR STEROIDOGENESIS INHIBITORS” (Corcept Therapeutics, Inc., priority 2017, published 2017).

Key:
Format in all cases: in vivo, human
[1] = Example 1: safety (adverse events, laboratory tests, ECG)
Protocol: (§1) In cohort 1, six subjects received ketoconazole 400 mg OD for 14 days.
(§2) In cohort 2, six subjects received ketoconazole 200 mg BID for 14 days. […] All 12 subjects completed the study. Cohort 2 subjects participated in a Screening visit to assess eligibility and a check-in Day (Day −1) during which eligibility was re-confirmed. […] The evening of Day 1, subjects received 200 mg oral ketoconazole. Subjects remained in the clinic on Days 2, 3 and 4 to receive 200 mg BID oral ketoconazole, and for safety evaluation and collection of blood pharmacokinetic (PK) samples. Subjects were discharged from the clinic on Day 4 following evening administration of 200 mg oral ketoconazole, and returned to the clinic the morning and evening of Days 5 through 13 to receive 200 mg BID oral ketoconazole. Morning doses of ketoconazole on Days 0-13 were administered in the fasted state.
(§3) Subjects in both cohorts returned to the study center on Day 15 for safety monitoring, and completion of the Termination Visit procedures, followed by discharge from the study. Safety was assessed by spontaneously reported adverse events, physical examinations, and routine clinical laboratory tests. To the extent possible, any adverse events deemed study drug-related and that were ongoing at the time of discharge from the study were followed-up to resolution or until a determination is made that the unresolved event was stable.

[2] = Example 1: effect of oral ketoconazole (400 mg OD or 200 mg BID) on plasma pharmacokinetics of a 300 mg single dose of mifepristone, fasted; conditions: for Cmax / AUC(0-t) / half-life / Tmax: male, human, plasma, oral; for AUC(0-t): read-out: AUCt (AUC0-24 hours, mean); for half-life: read-out: T1/2 (mean) (converted); for Tmax: read-out: Tmax (median)
Description: This study was an open-label study in healthy male subjects.
Healthy male volunteers between the ages of 18 to 45 years of age with a body mass index (BMI) ranging between 19 and 32 kg/m2 and a weight of at least 60 kg (132 lbs) were enrolled. Subjects had no clinically significant abnormal findings on the physical examination, ECG, blood pressure, heart rate, medical history, or clinical laboratory results during screening. The QTc interval at screening was less than 450 msec.
as §1
Subjects remained in the clinic on Days 2 and 3 to receive 400 mg OD oral ketoconazole fasted, and for safety evaluation and collection of blood pharmacokinetic (PK) samples. Subjects were discharged from the clinic on Day 4 following administration of 400 mg OD oral ketoconazole fasted, and returned to the clinic the mornings of Days 5 through 13 to receive 400 mg OD oral ketoconazole fasted.
as §2, §3
Descriptive statistics (count, mean, median, standard deviation, minimum, maximum, and % coefficient of variation) were provided. […] Comparisons with previous study data were made.

[3] = Example 2: safety (adverse events, physical examinations, laboratory tests)
Protocol: (§4) This was an open-label study in healthy male subjects. […] The 400 mg single dose of ketoconazole was given to all subjects on day 8.
Safety was assessed by spontaneously reported adverse events, physical examinations, and routine clinical laboratory tests. Adverse event data were tabulated. Physical findings and laboratory test results were listed by subject.

[4] = Example 2: effect of a 400 mg single dose of ketoconazole on PK of an 8-day regimen of 300 mg or 600 mg OD mifepristone, moderate fat breakfast; conditions: for Cmax / AUC(0-t) / Tmax / half-life: male, human, plasma, oral; for AUC(0-t): read-out: AUCt (AUC0-24 hours, mean); for Tmax: read-out: Tmax (median); for half-life: read-out: T1/2 (mean) (converted)
Protocol: as §4
METHODOLOGY: Twelve subjects were enrolled, six in Cohort 1 and 6 in Cohort 2.
Subjects were discharged on Day 11.
Subjects were discharged on Day 11. Subjects in both cohorts returned to study center on Day 13 for safety monitoring, collection of the 120-hour PK draw, and completion of the Termination Visit procedures, followed by discharge from the study. To the extent possible, any adverse events deemed study drug-related and that were ongoing at the time of discharge from the study were followed-up to resolution or until a determination was made that the unresolved event was stable.
DIAGNOSIS AND MAIN […] FOR INCLUSION: Healthy male volunteers between the ages of 18 to 45 years of age with a body mass index (BMI) ranging between 19 and 32 kg/m2 and a weight of at least 60 kg (132 lbs) were enrolled. Subjects had no clinically significant abnormal findings on the physical examination, ECG, blood pressure, heart rate, medical history, or clinical laboratory results during screening. The QTc interval at screening was less than 450 msec.
DURATION OF TREATMENT: Up to a total of 28 days, including up to 2 weeks screening, dosing on Days 1-8, safety observation, and PK sample collection through Day 13.
Additionally, comparisons were made between the PK results of cohort 1 and 2. Pharmacokinetic parameters Cmax, T1/2 and total AUC were calculated for plasma concentrations of ketoconazole following the single dose on Day 8. Descriptive statistics (count, mean, median, standard deviation, minimum, maximum, and % coefficient of variation) were provided. Ketoconazole concentrations were listed and summarized. GM means of Cmax and total AUC were compared for the single dose in this study to the combined data of reported 400 mg single doses of ketoconazole of healthy subjects from the literature.

[5] = Example 3: safety (adverse events, laboratory tests, vital signs, ECG)
Protocol: A single dose of ketoconazole was administered on Day −1.

[6] = mifepristone 300 mg single dose with ketoconazole for 14 days
[7] = C2/C1 (Keto 200 mg BID vs 400 mg OD)
[8] = MIFE 300 mg single dose fasted + Keto 200 mg BID (Cohort 2)
[9] = MIFE 300 mg single dose fasted + Keto 400 mg OD (Cohort 1)
[10] = C1 Day 8/Day 7 (300 mg/d, with vs without 400 mg Keto)
[11] = C2 Day 8/Day 7 (600 mg/d, with vs without 400 mg Keto)
[12] = Cohort 1 (300 mg OD), Day 8 with 400 mg ketoconazole relative to Day 7 without
[13] = Cohort 2 (600 mg OD), Day 8 with 400 mg ketoconazole vs Day 7
[14] = Day 7 C2/C1 (600 vs 300 mg/d, no ketoconazole)
[15] = Day 8 C2/C1 (600 vs 300 mg/d, with 400 mg Keto)
[16] = Day 8 in the presence of 400 mg ketoconazole
[17] = 300 mg/d, MIFE 300 mg/d, C1 Day 7, no ketoconazole
[18] = 600 mg/d, MIFE 600 mg/d, C2 Day 7, no ketoconazole
[19] = MIFE 300 mg/d, C1 Day 8, + 400 mg Keto single dose
[20] = MIFE 600 mg/d, C2 Day 8, + 400 mg Keto single dose

With `CC#C[C@]1(O)CC[C@H]2[C@@H]3CCC4=CC(=O)CCC4=C3[C@@H](c3ccc(N(C)C)cc3)C[C@@]21C` [mifepristone, 11β-(4-dimethylaminophenyl)-17β-hydroxy-17α-(1-propynyl)-estra-4,9-dien-3-one] as the compound, how does the safety and tolerability ([1]; 300 mg single-dose fasted with ketoconazole 400 mg OD or 200 mg BID for 14 days, healthy volunteers) read?
The safety and tolerability was “safe and well tolerated”.

And the “subjects with at least one treatment emergent adverse event (TEAE)” value ([1]; 12 subjects, mifepristone 300 mg single dose with ketoconazole for 14 days)?
The value was 25%.

What about the “changes in ECG parameters” value ([1]; mifepristone 300 mg single dose with ketoconazole) of the same compound?
The value was “No clinically significant changes”.

And the “SAE or AE resulting in discontinuation” value [1, 6]?
Its value is “No subject experienced a serious adverse effect (SAE), or an adverse event (AE) that resulted in discontinuation”.

What about the “TEAEs considered by the investigator to be related to the drug” value [1, 6] of the same compound?
Its value is “No TEAE”.

What about the “Mean Ratio AUCtotal (AUCinf, geometric mean ratio)” value [2, 7] of the same compound?
The value was 1.05.

What about the “Mean Ratio Cmax (geometric mean ratio)” value [2, 7] of the same compound?
The value was 1.15.

And the “Terminal half-life Cohort 2 versus Cohort 1” value ([2]; Keto 200 mg BID vs 400 mg OD)?
Its value is “approximately the same”.

What about the “Tmax Cohort 2 versus Cohort 1” value ([2]; Keto 200 mg BID vs 400 mg OD) of the same compound?
Its value is “shorter”.

What about the “AUCtot (AUCtotal, mean)” value [2, 8] of the same compound?
The value was 130925 ng·h/mL.

And the “AUCtot (AUCtotal, mean)” value [2, 9]?
The value was 116939 ng·h/mL.

What about the Cmax [2, 8] of the same compound?
The Cmax was 4140 ng/mL.

What about the AUC(0-t) [2, 8] of the same compound?
The AUC(0-t) was 40600 ng·h/mL.

What about the half-life [2, 8] of the same compound?
Its half-life is 37.4 h.

What about the Tmax [2, 8] of the same compound?
The Tmax was 1 h.

And the Cmax [2, 9]?
The Cmax was 3400 ng/mL.

And the AUC(0-t) [2, 9]?
The AUC(0-t) was 38100 ng·h/mL.

And the half-life [2, 9]?
The half-life was 37.1 h.

What about the Tmax [2, 9] of the same compound?
Its Tmax is 2 h.

What about the “TEAEs considered possibly or probably related to administration” value ([3]; four subjects in Cohort 2 (600 mg)) of the same compound?
The value was “dizziness, nausea, vomiting, dry mouth, and rash”.

What about the SAE ([3]; mifepristone 300 or 600 mg OD 8 days + 400 mg ketoconazole Day 8) of the same compound?
Its SAE is “No subject experienced an SAE”.

What about the “subjects with at least 1 TEAE” value ([3]; twelve subjects, mifepristone 300 or 600 mg OD 8 days + 400 mg ketoconazole Day 8) of the same compound?
The value was 50%.

And the “Mean Ratio AUCt” value [4, 10]?
Its value is 1.25.

What about the “Mean Ratio Cmax” value [4, 10] of the same compound?
The value was 1.19.

What about the “Mean Ratio AUCt” value [4, 11] of the same compound?
Its value is 1.28.

What about the “Mean Ratio Cmax” value [4, 11] of the same compound?
The value was 1.39.

And the “increase in AUC0-24” value [4, 12]?
Its value is 25%.

What about the “increase in Cmax” value [4, 12] of the same compound?
The value was 20%.

What about the “increase in AUC0-24” value [4, 13] of the same compound?
Its value is 28%.

And the “increase in Cmax” value [4, 13]?
Its value is 39%.

And the “Mean Ratio AUCt” value [4, 14]?
The value was 1.48.

What about the “Mean Ratio Cmax” value [4, 14] of the same compound?
Its value is 1.42.

And the “AUC0-24 greater at 600 mg OD than at 300 mg OD” value ([4]; Day 7 without ketoconazole)?
Its value is 48%.

And the “Cmax greater at 600 mg OD than at 300 mg OD” value ([4]; Day 7 without ketoconazole)?
The value was 42%.

What about the “Mean Ratio AUCt” value [4, 15] of the same compound?
The value was 1.52.

What about the “Mean Ratio Cmax” value [4, 15] of the same compound?
Its value is 1.65.

And the “AUC0-24 greater at 600 mg OD than at 300 mg OD” value [4, 16]?
The value was 52%.

And the “Cmax greater at 600 mg OD than at 300 mg OD” value [4, 16]?
The value was 65%.

And the “half-life greater at 600 mg OD than at 300 mg OD” value [4, 16]?
Its value is 13%.

What about the Cmax [4, 17] of the same compound?
The Cmax was 2700 ng/mL.

What about the AUC(0-t) [4, 17] of the same compound?
Its AUC(0-t) is 37700 ng·h/mL.

And the Tmax [4, 17]?
The Tmax was 3 h.

What about the Cmax [4, 18] of the same compound?
Its Cmax is 3820 ng/mL.

And the AUC(0-t) [4, 18]?
Its AUC(0-t) is 54200 ng·h/mL.

And the Tmax [4, 18]?
The Tmax was 4 h.

And the Cmax [4, 19]?
The Cmax was 3240 ng/mL.

And the AUC(0-t) [4, 19]?
Its AUC(0-t) is 47400 ng·h/mL.

What about the half-life [4, 19] of the same compound?
The half-life was 84.9 h.

What about the Tmax [4, 19] of the same compound?
Its Tmax is 2.1 h.

And the Cmax [4, 20]?
Its Cmax is 5260 ng/mL.

And the AUC(0-t) [4, 20]?
The AUC(0-t) was 69100 ng·h/mL.

What about the half-life [4, 20] of the same compound?
The half-life was 96.2 h.

And the Tmax [4, 20]?
Its Tmax is 4 h.

What about the “subjects reporting at least one TEAE” value ([5]; during the mifepristone/ketoconazole treatment period) of the same compound?
The value was 57.1%.

What about the “subjects reporting at least one TEAE” value ([5]; during treatment with mifepristone alone (600 mg once daily)) of the same compound?
Its value is 55.6%.

And the “subjects with elevated laboratory test results reported as drug-related TEAEs” value ([5]; liver enzymes (one subject), creatinine (two subjects), from Day 14)?
Its value is “Three subjects”.

And the “effects on hematology or urinalysis parameters, vital signs, or ECGs” value ([5]; multiple-dose mifepristone with or without multiple-dose ketoconazole)?
Its value is “No clinically significant effects”.

What about the “deaths or SAEs” value ([5]; whole study) of the same compound?
Its value is “No deaths or SAEs”.

And the “severe TEAEs” value ([5]; whole study)?
Its value is “No severe TEAEs”.
